Results: patent publication US20100311700A1, “Transdermal preparation for external use containing nonsterioidal antiinflammatory/analgesic agent” (Hisamitsu Pharmaceutical Co., Inc., priority 2005, published 2010)

Columns and labels:
Type in all cases: in vivo
Balb/c mice [1] = assay: Murine auricular photo-irradiation test (ear edema after 2% ketoprofen + UVA); conditions: UVA 40 J/cm^2, toward the KP group
Experimental: The following experiments were carried out by referring to the method of Gerberick et al. (Food Chem. Toxicol., 27, 813-819 (1989) and modifying a part of it. Namely, as a test animal, Balb/c mice (female, 9-11 weeks old) were used. Each test substance {4-tert-butyl-4′-methoxydibenzoylmethane (BM-DBM), 2-ethylhexyl dimethoxybenzylidenedioxoimidazolidinepropionate (DB-D1H), terephthalylidene-3,3′-dicamphor-10,10′-disulfonic acid (TCDCS) and n-hexyl 2-(4-dimethylamino-2-hydroxybenzoyl)benzoate (DHB-BH)} which were dissolved in ethanol and 2% ketoprofen (KP) were applied on the auricle, and followed by WA irradiation at 40 J/cm^2.
The ear thickness was measured 24 hours after the WA irradiation, and an increase from the ear thickness prior to the start of the test was calculated.

Balb/c mice [2] = assay: Murine auricular lymph node test 2 (modified LLNA, lymph node weight after ketoprofen + UVA); conditions: test substance 2% with KP 2%; UVA 20 J/cm^2, three days; lymph node removed after 5 days; toward the KP group
Experimental: Detection of a skin symptom due to an immunological mechanism resulting from KP upon photo-irradiation was carried out by other modified method of the above LLNA. Namely, as a test animal, Balb/c mice (female, 8-12 weeks old) were used. A test substance of 2% concentration and KP of 2% concentration which were dissolved in acetone—olive oil (4:1, v/v) or acetone—olive oil—physiological saline (3:3:1, v/v) were applied on the back of the pinna, and followed by UVA irradiation at 20 J/cm^2. This treatment inducing sensitization was carried out for three days consecutively. After 5 days from the start of the sensitization, the murine auricular lymph node was removed, and pooled in PBS. Then, PBS attached to the removed lymph node was sufficiently wiped up, and weighed. […]

Balb/c mice [3] = assay: Murine local lymph node test 1 (modified LLNA, 3H-TdR uptake after ketoprofen + UVA); conditions: UVA 20 J/cm^2, 3 days, toward the KP group
Experimental: Detection of a skin symptom due to an immunological mechanism resulting from KP upon photo-irradiation was carried out by a modified method of Murine Local Lymph Node Assay (LLNA) proposed by The Interagency Coordinating Committee on the Validation of Alternative Methods (ICCVAM). Namely, as a test animal, Balb/c mice (female, 8-12 weeks old) were used. The test substance {4-tert-butyl-4′-methoxydibenzoylmethane (BM-DBM)} and 2% ketoprofen (KP) which were dissolved in acetone—olive oil (4:1, v/v) were applied on the back of the pinna, and followed by UVA irradiation at 20 J/cm^2. This treatment inducing sensitization was carried out for 3 days consecutively. After 5 days from the start of sensitization, a ^3H-methylthymidine (3H-TdR)/PBS solution of 20μCi per mouse was injected in the tail vein, and after 5 hours, the auricular lymph node was removed. The removed lymph node was made into a single lymph cell suspension by a cell strainer, then washed two times with PBS, and let it stand in 5% trichloroacetic acid (TCA) solution at 4° C. overnight to precipitate DNA. The precipitate was suspended in 1 ml of 5% TCA solution and a radiation activity was measured by a liquid scintillation counter.

[4] = system: Hartley strain guinea pig; assay: Photo-sensitization test using guinea pigs (modified Adjuvant and Strip method); conditions: 2% test substance with 2% KP in ethanol, UVA 10 J/cm^2, toward the KP group
Experimental: An effect exerted by the UV blocker to skin symptoms due to an immunological mechanism resulting from KP upon photo-irradiation was further examined by a modified method of the Adjuvant and Strip method of Sato et al. (Nishinihon Hifuka, 42, 831-837 (1980)) using guinea pigs. That is, the cervical back of a white female Hartley strain guinea pig (eight guinea pigs per group) was depilated, and the adjuvant was administered to four corners of 2×2 cm, and then, 2% ketoprofen (KP) solution, or 2% KP and 2% test substance {4-tert-butyl-4′-methoxydibenzoylmethane (BM-DBM)} solution, which were dissolved in ethanol, were applied on the above parts of 2×2 cm under an open condition, and after 1 hour, UVA (10 J/cm^2) was irradiated. This treatment of sensitization induction was carried out successively for 5 days. […] Skin reactions after 24 hours and 48 hours from the irradiation were evaluated according to the above standard of Sato et al. The suppression effect by BM-DBM to the skin symptoms due to the immunological mechanism resulting from KP upon photo-irradiation was evaluated by the erythema/edema suppression ratio (%) toward the KP group.

[5] = test substance conc. 0.5% in ethanol with 2% ketoprofen on the auricle, ear thickness 24 hours after irradiation

Row | Compound | Ear edema suppression ratio (%) (Balb/c mice [1]; [5]) | Suppression ratio (%) in the weight increase of the auricular lymph node (Balb/c mice [2]) [%] | further results
1 | 2-ethylhexyl dimethoxybenzylidenedioxoimidazolidinepropionate [DB-DIH] | 34 |  | 
2 | O=C(c1ccc(O)cc1O)c1ccc(O)cc1O [2,2′,4,4′-Tetrahydroxybenzophenone, reference compound] |  | −32 | 
3 | COc1ccc(O)c(-n2nc3ccccc3n2)c1 [2-(2′-Hydroxy-5′-methoxyphenyl)-bezotriazole] |  | 4 | 
4 | CCCCC(CC)COC(=O)C=Cc1ccc(OC)cc1 (centres unmarked) [2-Ethylhexyl 4-methoxycinnamate] |  | 20 | 
5 | Nc1ccc(C(=O)O)cc1 [4-Aminobenzoic acid, reference compound] |  | −39 | 
6 | COc1ccc(C(=O)CC(=O)c2ccc(C(C)(C)C)cc2)cc1 [BM-DBM, 4-tert-butyl-4′-methoxydibenzoylmethane] | 98 | 88 | ^3H-TdR uptake suppression ratio(%) (Balb/c mice [3]; BM-DBM concentration 0.06% with 2% ketoprofen in acetone-olive oil (4:1), auricular lymph node): 30%; ^3H-TdR uptake suppression ratio(%) (Balb/c mice [3]; BM-DBM concentration 0.13% with 2% ketoprofen): 51%; ^3H-TdR uptake suppression ratio(%) (Balb/c mice [3]; BM-DBM concentration 0.25% with 2% ketoprofen): 24%; ^3H-TdR uptake suppression ratio(%) (Balb/c mice [3]; BM-DBM concentration 0.50% with 2% ketoprofen): 94%; ^3H-TdR uptake suppression ratio(%) (Balb/c mice [3]; BM-DBM concentration 1.00% with 2% ketoprofen): 99%; Erythema/Edema suppression ratio (%) After 24 hrs ([4]; skin reaction 24 hours after photo-induction irradiation): 69%; Erythema/Edema suppression ratio (%) After 48 hrs ([4]; skin reaction 48 hours after photo-induction irradiation): 74%; Ear edema suppression ratio (%) (Balb/c mice [1]; test substance conc. 0.1% with 2% ketoprofen, 24 hours after irradiation): 41%; Ear edema suppression ratio (%) (Balb/c mice [1]; test substance conc. 0.3% with 2% ketoprofen, 24 hours after irradiation): 81%
7 | CCCCCCOC(=O)c1ccccc1C(=O)c1ccc(N(C)C)cc1O [DHB-BH, n-hexyl 2-(4-dimethylamino-2-hydroxybenzoyl)benzoate] | 84 |  | 
8 | CCOC(=O)c1ccc(N)cc1 [Ethyl 4-aminobenzoate] |  | 43 | 
9 | O=C(OCCO)c1ccccc1O [Ethylene glycol monosalicylate, reference compound] |  | −68 | 
10 | COc1ccc(C(=O)c2ccccc2)c(O)c1 [Oxybenzone] |  | 56 | 
11 | O=C(Oc1ccccc1)c1ccccc1O [Phenyl salicylate, reference compound] |  | 0 | 
12 | CC1(C)C2CCC1(CS(=O)(=O)O)C(=O)/C2=C\c1ccc(/C=C2/C(=O)C3(CS(=O)(=O)O)CCC2C3(C)C)cc1 [TP-DCS, terephthalylidene-3,3′-dicamphor-10,10′-disulfonic acid] | 65 | 63 | 
